Data published in patent US11229657B2, “Targeting hypoxic cancer stem cells (CSCs) with doxycycline: implications for improving anti-angiogenic therapy” (LUNELLA BIOTECH, INC., priority 2017, dated 2022).
Read-outs that look alike come from different tables or passages of the source. One block for each compound: values may come before it.

Experiments:
Assay type in all cases: cell-based
CSC propagation = assay: IC-50s of metabolic agents for inhibiting CSC propagation (Table 3); settings: read-out: IC-50 for inhibiting CSC propagation
Procedure: Glycolysis is required to provide additional TCA cycle intermediates for the mitochondrial processing of Acetyl-CoA. […] Briefly, 2-deoxy-D-glucose (2-DG) or ascorbic acid were dissolved in culture medium. […] Bonuccelli et al. Oncotarget, 8: 20667-20678 (2017). […] 15, 2017, and Patent Cooperation Treaty (PCT) Patent Application PCT/US2018/022403, filed Mar. 14, 2018, the entireties of which are incorporated herein by reference; mitoketoscins, such as those disclosed in U.S. Provisional Patent Application No. 62/524,829, filed Jun. 26, 2017, the entirety of which is incorporated herein by reference; mitoflavoscins, such as those disclosed in U.S. Provisional Patent Application No. 62/576,287, filed Oct. 24, 2017, the entirety of which is incorporated herein by reference; TPP-compounds (e.g., 2-butene-1,4-bis-TPP), such as those disclosed in U.S. Provisional Patent Application No. 62/590,432, filed Nov. 24, 2017, the entirety of which is incorporated herein by reference; mDIVI1, such as those disclosed in U.S. Provisional Patent Application No. 62/608,065, filed Dec. 20, 2017, the entirety of which is incorporated herein by reference; CAPE (caffeic acid phenyl ester); antimitoscins, such as those disclosed in 62/508,702, filed May 19, 2017, the entirety of which is incorporated herein by reference; repurposcins such as those disclosed in U.S. Provisional Patent Application No. 62/593,372, filed Dec. 1, 2017, the entirety of which is incorporated herein by reference; other known mitochondrial inhibitors.

MCF7 cells [1] = assay: Mammosphere formation assay (CSC activity/propagation); settings: for IC50: Homo sapiens, MCF7, Valproic acid-augmented conditions, read-out: IC-50, Valproic acid-augmented CSC propagation; for IC50 / Valproic acid-augmented CSC propagation (mammosphere formation): FIG. 12C; for Valproic acid-augmented CSC propagation (mammosphere formation): glycolysis inhibitors; for basal and Valproic acid-augmented CSC propagation (mammosphere formation): FIG. 12A-B
Procedure: Briefly, a single cell suspension of MCF7 cells previously exposed to normoxia (21% O2) or hypoxia (1% O2) for 6 h, 72 h or 96 h was prepared using enzymatic (lx Trypsin-EDTA, Sigma Aldrich) and manual disaggregation (25-gauge needle). Cells were plated at a density of 500 cells/cm^2 in mammosphere medium (DMEM-F12/B27/20-ng/ml EGF/PenStrep) in nonadherent conditions, in culture dishes coated with (2-hydroxyethylmethacrylate) (poly-HEMA, Sigma), in the presence of treatments. Cells were grown for 5 days and maintained in a humidified incubator at 37° C. at an atmospheric pressure in 5% (v/v) carbon dioxide/air. After five days of culturing, spheres greater than 50 μm in diameter were counted using an eye piece graticule, and the percentage of cells plated which formed spheres was calculated. Mammosphere assays were performed in triplicate and repeated three times independently.

MCF7 cells [2] = assay: Mitochondrial mass by FACS with MitoTracker Deep-Red-FM; settings: increasing concentrations 0, 1, 2.5 and 5 mM; FIG. 11A
Procedure: The inventors examined the effects of chronic hypoxia and oxidative stress on the propagation of breast CSCs using MCF7 cells as a model system. It should be appreciated that other model systems may be used. Briefly, MCF7 cells were obtained from ATCC and cultured in DMEM (Sigma Aldrich). For hypoxic testing, MCF7 cells were cultured in low glucose DMEM in a multi-gas N2/CO2 hypoxic chamber at 1% 02. In parallel, MCF7 cells were cultured in low glucose DMEM at 21% 02 to serve as a normoxic control. […] Next, the MCF7 cells were trypsinized and subjected to fluorescence-activated cell sorting (FACS) with MitoTracker Deep-Red-FM (Life Technologies). MitoTracker Deep Red localizes to mitochondria regardless of mitochondrial membrane potential. Cells were incubated with pre-warmed MitoTracker staining solution (diluted in PBS/CM to a final concentration of 10 nM) for 30-60 min at 37° C. All subsequent steps were performed in the dark. Cells were washed in PBS, harvested, re-suspended in 300 μL of PBS and then analyzed by flow cytometry (Fortessa, BD Bioscience). Data analysis was performed using FlowJo software (Tree star Inc.). […] FIG. 2F is a representative FACS tracing showing 96 hours of hypoxia increased mitochondrial mass. The effects of hypoxia treatment were confirmed using immunoblot analysis with TOMM20, a marker of mitochondrial mass.

MCF7 cells [3] = assay: ALDH activity by FACS (ALDEFLUOR kit); settings: 2.5 mM; FIGS. 11C-D
Procedure: The present approach further includes methods of analyzing the effects of hypoxia on CSCs by examining relative changes of CSC markers. For example, aldehyde dehydrogenase (ALDH) activity is routinely used as a marker for CSCs. It should be appreciated by those in the art that other CSC markers may be used. ALDH activity was assessed by FACS analysis in MCF7 cells cultured for 72 hours in normoxia (21% 02) or hypoxia (1% 02). The ALDEFLUOR kit (StemCell Technologies) was used to isolate the population with high ALDH enzymatic activity by FACS (Fortessa, BD Bioscence). Briefly, 1×10^5 MCF7 cells were incubated in 1 ml ALDEFLUOR assay buffer containing ALDH substrate (5 μl/ml) for 40 minutes at 37° C. In each experiment, a sample of cells was stained under identical conditions with 30 μM of diethylaminobenzaldehyde (DEAB), a specific ALDH inhibitor, as a negative control. The ALDEFLUOR-positive population was established in according to the manufacturer's instructions and was evaluated in 3×10^4 cells. Data analysis was performed using FlowJo software (Tree star Inc.).

Structure (SMILES): C[C@H]1c2cccc(O)c2C(=O)C2=C(O)[C@]3(O)C(=O)C(C(N)=O)=C(O)[C@@H](N(C)C)[C@@H]3[C@@H](O)[C@@H]21 [Doxycycline]
IC50 (CSC propagation; Table 3, values in mM): 0.005 mM

Structure (SMILES): O=C1O[C@H]([C@@H](O)CO)C(O)=C1O [Vitamin C, ascorbic acid]
IC50 (MCF7 cells [1]): ~500 µM | Valproic acid-augmented CSC propagation (mammosphere formation) (MCF7 cells [1]): sufficient to inhibit | potency under Valproic acid-augmented conditions compared to basal conditions (MCF7 cells [1]; versus previously published results under basal conditions (Bonuccelli et al. 2017)): two times as potent | IC50 (CSC propagation; Table 3, values in mM): 1 mM

Structure (SMILES): C1CCC(C(CC2CCCCN2)C2CCCCC2)CC1 (stereo not shown) [Perhexiline]
basal and Valproic acid-augmented CSC propagation (mammosphere formation) (MCF7 cells [1]): inhibit | IC50 (CSC propagation; Table 3, values given with nM): < 0.0001 mM

Structure (SMILES): CCN(CC)CCCC(C)Nc1ccnc2cc(Cl)ccc12 (stereo not shown) [Chloroquine]
IC50 (CSC propagation): < 0.025 mM

Structure (SMILES): CC(=O)O[C@H]1C(=O)[C@@]2(C)[C@H]([C@H](OC(=O)c3ccccc3)[C@]3(O)C[C@H](OC(=O)[C@H](O)[C@@H](NC(=O)c4ccccc4)c4ccccc4)C(C)=C1C3(C)C)[C@]1(OC(C)=O)CO[C@@H]1C[C@@H]2O [Paclitaxel]
CSC resistance to treatment (measured by mammosphere formation) (MCF7 cells [1]; MCF7 cells, FIGS. 5A-B): a fraction of CSCs is resistant

Structure (SMILES): COc1ccc2cc3[n+](cc2c1OC)CCc1cc2c(cc1-3)OCO2 [Berberine]
IC50 (CSC propagation; Table 3, values in mM): 0.001 mM

Structure (SMILES): CCCC(CCC)C(=O)O [Valproic acid]
mammosphere formation (MCF7 cells [1]; MCF7 cells, FIG. 11B): increases | increase in mitochondrial mass (MCF7 cells [2]): up to 3 fold | increase in ALDH activity (MCF7 cells [3]): > 1.5 fold

Now from value to compound, other results behind:

IC50 (CSC propagation; Table 3, values given with nM): 0.0001 mM
Structure (SMILES): O=C(Nc1ccc([N+](=O)[O-])cc1Cl)c1cc(Cl)ccc1O [Niclosamide]

IC50 (CSC propagation; Table 3, values in mM): 0.05 to 0.1 mM
Structure (SMILES): CC[C@H]1OC(=O)[C@H](C)[C@@H](O[C@H]2C[C@@](C)(OC)[C@@H](O)[C@H](C)O2)[C@H](C)[C@@H](O[C@@H]2O[C@H](C)C[C@H](N(C)C)[C@H]2O)[C@](C)(O)C[C@@H](C)CN(C)[C@H](C)[C@@H](O)[C@]1(C)O [Azithromycin]

IC50 (CSC propagation; Table 3, values in mM): 0.01 to 0.05 mM
Structure (SMILES): CC(C)(C)C(O)/C=C/c1ccc2c(c1)OCO2 (stereo not shown) [Stiripentol]

IC50 (CSC propagation; Table 3, values in mM): 0.001 mM
Structure (SMILES): O=C1C(O)=C([C@H]2CC[C@H](c3ccc(Cl)cc3)CC2)C(=O)c2ccccc21 [Atovaquone]

IC50 (MCF7 cells [1]): 1000 µM | IC50 (CSC propagation; Table 3, values in mM): 10 to 20 mM
Structure (SMILES): O=CC[C@@H](O)[C@H](O)[C@H](O)CO [2-DG, 2-deoxy-D-glucose]
Valproic acid-augmented CSC propagation (mammosphere formation) (MCF7 cells [1]): sufficient to inhibit

IC50 (CSC propagation; Table 3, values in mM): < 0.2 mM
Structure (SMILES): CCOC(=O)[C@@]1(CCCCCCOc2ccc(Cl)cc2)CO1 [Etomoxir]
basal and Valproic acid-augmented CSC propagation (mammosphere formation) (MCF7 cells [1]): inhibit

IC50 (CSC propagation; Table 3, values in mM): 0.0005 to 0.001 mM
Structure (SMILES): CNC(=O)c1cc(Oc2ccc(NC(=O)Nc3ccc(Cl)c(C(F)(F)F)c3)cc2)ccn1 [Sorafenib]

IC50 (CSC propagation; Table 3, values in mM): 0.001 mM
Structure (SMILES): COc1nc2ccc(Br)cc2cc1[C@@H](c1ccccc1)[C@@](O)(CCN(C)C)c1cccc2ccccc12 [Bedaquiline]

IC50 (CSC propagation; Table 3, values given with nM): 0.0005 mM
Structure (SMILES): CCc1c2c(nc3ccc(OC(=O)N4CCC(N5CCCCC5)CC4)cc13)-c1cc3c(c(=O)n1C2)COC(=O)[C@]3(O)CC [Irinotecan]
